melting point [°C] | SMILES
195 | COc1cc(C=C2SC(=S)N(CNc3ccc([N+](=O)[O-])cc3)C2=O)ccc1O
75 | Oc1ccccc1N1CCCCC1
301 to 303 | N#Cc1c(C(F)(F)F)cc(-c2ccccc2)[nH]c1=O
176 | CC(=O)Nc1ccc([N+](=O)[O-])c(F)c1
37 | c1ccc(SCSc2ccccc2)cc1
106 to 107 | O=C1c2ccccc2C(=O)C1(Br)c1ccccc1
119 | O=Nc1ccc(C(=O)OC2Cc3ccccc32)cc1 (stereo not given)
209 to 210 | O=C(O)c1cccc(Cn2cncn2)c1
106 to 111 | N#Cc1ccc(N)c(Br)c1
270 | c1ccc2c(c1)ccc1ccc3ccc4ccc5cccnc5c4c3c12
118 | O=CC=Cn1ccnc1
-45 | COc1ccc(F)cc1
110 | c1ccc2c(Oc3cccc4ccccc34)cccc2c1
216 | O=C(C1=NOC2C(=O)N(c3cc(Cl)ccc3Cl)C(=O)C12)c1ccc([N+](=O)[O-])cc1 (stereo not given)
126 to 128 | CN(C)c1ccccc1-c1ccccc1P(c1ccccc1)c1ccccc1
271 | O=C1OC(c2ccccc2)=N/C1=C\c1ccc(/C=C2/N=C(c3ccccc3)OC2=O)cc1
273 | Sc1nccn1-c1cc(Cl)ccc1Cl
348 | CC1(C)CC(=O)C2=C(C1)Nc1ccc3ccccc3c1C2c1ccc(Cl)cc1Cl (stereo not given)
-16 | CC(C)c1cccc2ccccc12
80 to 81 | O=C(Cl)c1ccc(Oc2ccccn2)cc1
118 | Cc1ccc(S(=O)(=O)Oc2c(C(=O)c3ccc(Cl)cc3Cl)c(C)nn2C)cc1
190 to 193 | O=C(O)c1ccccc1-n1cccn1
172 to 176 | CCC1(c2cccc(O)c2)CCCCN(C)C1=O (stereo not given)
176 | Clc1ccc2c(c1)C(N1CCNCC1)=Nc1ccccc1O2

melting point [°C] | SMILES
214 | NC(=S)Nc1ccc(O)cc1
207 to 210 | O=C(O)C=Cc1ccc(F)cc1
245 | Nc1ncnc2c1ncn2Cc1c(F)cccc1Cl
96.5 | CCOc1ccc([N+](=O)[O-])cc1N
134 to 136 | COc1cc(F)ccc1C(=O)O
174 | Cc1ccc(NC(=O)c2cccc3ccccc23)cc1
169 | COc1ccc(C(=O)Oc2ccc(C(=O)/C=C/c3ccc4c(c3)OCO4)cc2)cc1
136 | O=C(C(Cl)Cl)N(CCO)Cc1ccc(Oc2ccc([N+](=O)[O-])cc2)cc1
67 | COc1ccc(C(O)c2ccccc2)cc1 (stereo not given)
134 to 136 | Cc1cccc2c1-c1nc3ccccc3nc1-2
48 to 48.5 | Cc1nccn1-c1ccccc1CN
181 | CCN(CC)C(=O)C1=C(C)NC(=O)NC1c1ccccc1 (stereo not given)
230 to 232 | COC(=O)C1=C(N)Oc2cc(C)[nH]c(=O)c2C1c1ccccc1 (stereo not given)
76 to 77 | N#CCc1ccc(OCc2ccc(Cl)c(Cl)c2)cc1
213 | O=c1c(C2CC(c3ccc(-c4ccccc4)cc3)Cc3ccccc32)c(O)oc2ccccc12 (stereo not given)
37 to 40 | CN(C)CCOc1ccccc1N
51 | CCOC(=O)CCC(=O)c1ccc(OC)cc1
118 | CCC(C(=O)Nc1ccc(C)cc1)c1ccc(C)cc1 (stereo not given)
183 to 187 | O=C(N[C@@H](Cc1ccccc1)C(=O)O)OCC1c2ccccc2-c2ccccc21
77 to 79 | O=C(Cl)c1cnn(-c2ccc([N+](=O)[O-])cc2)c1C(F)(F)F
228 | CN1CCN(CCCN2c3ccccc3Sc3ccc(Cl)cc32)CC1
142 to 144 | CCCCOc1cc(C(=O)O)ccc1OC
99 to 100 | Nc1ccc(CN2CCOCC2)cc1
98 to 100 | O=Cc1cccn1-c1ccc(I)cc1

More lines, now with the values behind:

SMILES | melting point [°C]
Cc1cc(C2CC2)nc(Nc2ccccc2)n1 | 75.9
CC(=O)c1ccc2[nH]c(=O)oc2c1 | 236
c1ccc2c(c1)ccc1c3ccccc3sc21 | 189
CC(C)CC1CCCCC1 | -95
CCCCNCC | -78
CCCCOCCOCCOCCCC | -60
FC(F)=C(F)Cl | -109
Cc1n[nH]c(C)c1N | 192
C=C(C)C=CC(=C)C | -9
Nc1ccc(OC(F)(F)F)cc1[N+](=O)[O-] | 62 to 64
CC(C)(C)OC(=O)C(C)(C)ON=C(C(=O)O)c1csc(N)n1 | 180
CC(=O)OC1CC2C3CC=C4CC(O)CCC4(C)C3CCC2(C)C1C(C)C1CCC(C)CN1 (stereo not given) | 210
OCc1ccc(-c2cc(C(F)(F)F)cc(C(F)(F)F)c2)o1 | 110 to 113
O=C(O)c1ccc2c(c1)CCCN2 | 168 to 170
NCCNC(=O)C(=O)NCc1ccccn1 | 257
CC(=O)CC(C)(C)O | -42.8
O=C(Nc1ccc([N+](=O)[O-])cc1)C(C(F)(F)F)(C(F)(F)F)C(F)(F)F | 280 to 282
Clc1c(Cl)c(Cl)c2c(c1Cl)Oc1c(Cl)c(Cl)c(Cl)c(Cl)c1O2 | 330
Cc1c(Cl)cc(Cl)c(O)c1Cl | 46
CN1CCN(C)c2cc(C#N)ccc21 | 80 to 82
O=C1c2ccccc2-c2ccc3c4ccc5c6c(ccc(c7ccc1c2c73)c64)C(=O)c1ccccc1-5 | 492

SMILES | melting point [°C]
CCOP(=S)(OCC)Oc1ccc(=O)n(-c2ccccc2)n1 | 56.2
COC(=O)c1cc(C)n(C)n1 | 93
CCC1OC(=O)C(C)C(OC2CC(C)(OC)C(O)C(C)O2)C(C)C(OC2OC(C)CC(N(C)C)C2O)C(C)(O)CC(C)C(=O)C(C)C(O)C1(C)O (stereo not given) | 135
CCCCC(=O)NN | 60
Nc1nn2c(C(F)(F)F)cc(=O)[nH]c2c1/N=N/c1c(Br)cc(Br)cc1Br | 92 to 94
Cc1cc2c(C)ccc(C)c2cc1C | 64
COc1ccc2nc(NN)nnc2c1 | 238 to 240
CC(C)P(c1ccccc1)c1ccccc1 | 40
CC(=O)Nc1nccs1 | 204 to 208
COC(=O)CCCCCCC(=O)OC | -3.1
CCCc1cc(C(C)=O)c(O)cc1O | 99 to 101
CCCCCCCCCCCCC(CCCCCCCCCCC)CCCCCCCCCCCC | 9.7
Nc1cc(F)c(F)cc1C(=O)O | 182
FC(F)(F)C#CC(F)(F)F | -117
Cc1cc(O)ncc1[N+](=O)[O-] | 189
O=C(O)C=C(Br)C(=O)O | 184
O=C(C1CCNCC1)N1CCCCC1 | 107 to 109
CC(=NO)C(C)(C)O | 85
C/C(=N\O)c1ccc2c(c1)CCCC2 | 104 to 106
CC12C=CC(CC1)C2(C)C (stereo not given) | 113
COc1cc(OC)nc(NC(=O)NS(=O)(=O)c2ncccc2C(=O)N(C)C)n1 | 145

Reference: a melting point compilation (Tetko et al.)
